Reference: patent US5344846A, “Compositions and methods for inhibiting deoxyhypusine synthase and the growth of cells” (The United States of America as represented by the …, priority 1992, dated 1994)
Entries after “also recorded” stand apart in the source; their conditions may differ.

Legend:
deoxyhypusine synthase [1] = target: T1, deoxyhypusine synthase (Rattus norvegicus, UniProt Q6AY53); conditions: earlier publications; cited from earlier work
T1 construct: full-length homotetramer; substrate was human eIF-5A precursor expressed in E. coli
T1 sequence (Q6AY53 1-369): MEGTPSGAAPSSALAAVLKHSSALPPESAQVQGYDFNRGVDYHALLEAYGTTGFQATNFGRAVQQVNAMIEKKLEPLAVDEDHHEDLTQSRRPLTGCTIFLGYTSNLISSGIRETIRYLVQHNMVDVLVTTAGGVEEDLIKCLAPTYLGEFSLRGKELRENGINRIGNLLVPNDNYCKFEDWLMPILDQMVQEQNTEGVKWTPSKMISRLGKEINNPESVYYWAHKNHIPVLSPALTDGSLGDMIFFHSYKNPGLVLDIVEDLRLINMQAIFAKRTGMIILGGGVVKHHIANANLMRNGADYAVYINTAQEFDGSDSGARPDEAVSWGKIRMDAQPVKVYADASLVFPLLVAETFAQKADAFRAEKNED

[2] = target: T2, deoxyhypusine synthase from rat testis (Rattus norvegicus, UniProt Q6AY53); conditions: cited from earlier work
T2 construct: as catalyzed by deoxyhypusine synthase from rat testis; from tissue; host or cells: rat testis
T2 sequence (Q6AY53 1-369): T1 sequence (Q6AY53 1-369)

[3] = test system: oat seedling polyamine oxidase; conditions: cited from earlier work
[4] = test system: pea seedling diamine oxidase; conditions: cited from earlier work
deoxyhypusine synthase [5] = conditions: cited from earlier work
[6] = cited from earlier work
[7] = target: T2, deoxyhypusine synthase from rat testis; experiment: Inhibition of deoxyhypusine synthase ([3H]deoxyhypusine formation from [3H]spermidine), IC50/Ki; format: biochemical; conditions: for inhibition of deoxyhypusine synthase (in words): pH 9.3, 37° C., 1 hour, 2.4 μM [3H]spermidine; for relative inhibitory potency (in words): comparison with parent amine, bisguanylated counterpart or another inhibitor
Experimental: The enzyme assay was performed as previously described (see Wolff et al. (1990) J. Biol. Chem. 265:4793-4799; and Park et al. (1991) J. Biol. Chem. 266:7988-7994). A typical assay mixture included 0.2M glycine, 1 mM dithiothreitol, 0.5 mM NAD^+, 2.4 micromolar (μM) [1,8-^3 H] spermidine, 1 μM ec-eIF-5A(Lys), 25 micrograms (μg) bovine serum albumin, and 3-15 units of enzyme in a total volume of 20 microliters (μl). Incubations were carried out at pH 9.3 and 37° C. for 1 hour. […] Percent inhibition was plotted versus log inhibitor concentration in order to obtain graphic estimates of IC50 values, i.e., the concentrations inhibiting [^3 H]deoxyhypusine production by 50%. The IC50 values reported in the tables were calculated by fitting the data points to equation 1 where x=% inhibition and I is the inhibitor concentration. [formula] The nature of the inhibition was determined by plotting reciprocal velocities of [^3 H]deoxyhypusine production against reciprocals of [^3 H]spermidine concentrations at a constant fixed level of ec-eIF-5A(Lys) (1 μM) and at set inhibitor concentrations. […] Estimates of Ki values were made by fitting the data to equation 2; wherein v is the velocity of the reaction, V is the maximum velocity, S is the substrate concentration, Km is Michaeli's constant, Ki is the inhibition constant, and I is the inhibitor concentration. [formula] All fits were performed by means of an interactive curve-fitting program, MLAB, developed and modified at the National Institutes of Health to run on an IBM personal computer.

[8] = test system: deoxyhypusine synthase from HTC cells; conditions: cited from earlier work; for inhibition of deoxyhypusine synthase: 20 μM inhibitor, 1 μM spermidine, precursor from DFMO-treated HTC cells
deoxyhypusine synthase [9] = target: T1, deoxyhypusine synthase; experiment: Substrate property for deoxyhypusine synthase; format: biochemical; conditions: conditions similar to those for N-(3-aminopropyl)cadaverine
Experimental: (See Wolff et al. (1990) J. Biol. Chem. 265:4793-4799.) The Km(app) values for the substrates, spermidine, NAD^+ and eIF-5A precursor from spermidine-depleted CHO cells, have been calculated as approximately 4, 30, and 0.08 μM, respectively.
This finding is consistent with the conclusion that this lysine is the only one in the precursor that is converted to hypusine, both in cells and in the enzyme reaction in vitro.

Compound | pKa of N8-amino group [6] | inhibition of deoxyhypusine synthase (in words) [7] | inhibition of deoxyhypusine synthase [8] | substrate property for deoxyhypusine synthase (deoxyhypusine synthase [9]) | relative inhibitory potency (in words) [7] | further results
16-membered peptide: modeled on residues 40-55 of the human eIF-5A precursor protein and encompassing Lys^50 (IVEMSTSKTGKHGHAK; UniProt P63241 40-55, looked up, fragment) |  |  |  |  |  | substrate or cofactor function for deoxyhypusine synthase (deoxyhypusine synthase [1]): failed to act as a substrate; inhibition by precursor-related peptide [2]: only weak inhibition
N=C(N)NCCCCCCCCNCCCCCCCCNC(=N)N [Compound 40, guazatine] |  |  |  |  |  | inhibition of oat seedling polyamine oxidase [3]: known to inhibit; inhibition of pea seedling diamine oxidase [4]: known to inhibit; inhibition of deoxyhypusine synthase (literature) (deoxyhypusine synthase [5]): strong inhibitor
NCCCNCC(F)(F)CCN [Compound 37, 6,6-difluorospermidine] | 9.29 | quite strong inhibitors; also recorded: effective inhibition; also recorded: act as inhibitors | 90% |  |  | pKa of N1-amino group ([6]; N1-amino group): 10.34; Ki (in words) ([8]; HTC cell enzyme): very close to that for 1,3-diaminopropane and to the Km value for spermidine
NCCCNCCC(F)(F)CN [Compound 38, 7,7-Difluorospermidine] | 6.64 | devoid of inhibitory activity; also recorded: no inhibition | 0% |  |  | 
N=C(N)NCCCNCCCCN [Compound 51, N^1 -guanylspermidine] |  | high affinities for the enzyme |  | Neither displayed any detectable substrate property | exceeded bisguanylated spermidine (compound 53) as inhibitors; also recorded: uniformly more efficient inhibition | 
N=C(N)NCCCCNCCCN [Compound 52, N^8 -guanylspermidine] |  | high affinities for the enzyme |  | Neither displayed any detectable substrate property; also recorded: If it were, it would function as a substrate which it does not | exceeded bisguanylated spermidine (compound 53) as inhibitors; also recorded: uniformly more efficient inhibition; also recorded: somewhat more effective inhibitor than N^1 -guanylspermidine (compound 51) | 
